From patent US20040058861A1, “Use of lipopeptides in immunotherapy of HIV+ individuals” (priority 2000, published 2004)
Where a SMILES comes first, the peptide text is derived from it. The star is where a group is joined. Palmitoyl = CCCCCCCCCCCCCCCC(=O)*

Test: Solubilization of each lyophilized lipopeptide in pure acetic acid
Type: physicochemical
Conditions: pure acetic acid added to obtain 12.5 mg net/ml; before sonication
Experimental: Each lipopeptide is then solubilized by adding pure acetic acid to obtain a concentration of 12.5 mg net/ml. […] If the aggregates are not dissociated, the sonication is continued, separating each period of sonication (30 s) by 30 s gaps of no sonication, during which the bottles are shaken manually. At the end of the sonication step, the suspensions should be homogeneous (but will not be clear). Each lipopeptide is then diluted by adding water for injectable preparation. If the solution obtained is not totally clear, steps of heating in a water bath (at 40° C.±2° C.) and sonication (1 min maximum) may be carried out, separating them by 30 s gaps of no sonication. The final preparation is obtained by mixing the lipopeptides in equal weight amounts, adding them in the following order (the most hydrophilic to the most hydrophobic lipopeptides):

In the case of `CCCCCCCCCCCCCCCC(=O)NCCCC[C@H](NC(=O)[C@H](CC(C)C)NC(=O)[C@H](CCCCN)NC(=O)[C@H](Cc1ccc(O)cc1)NC(=O)[C@H](CC(C)C)NC(=O)[C@H](Cc1c[nH]c2ccccc12)NC(=O)CNC(=O)[C@H](Cc1ccccc1)NC(=O)[C@@H](NC(=O)[C@H](CC(C)C)NC(=O)[C@@H]1CCCN1C(=O)[C@H](Cc1ccc(O)cc1)NC(=O)[C@H](CCCNC(=N)N)NC(=O)[C@@H](NC(=O)CNC(=O)[C@@H]1CCCN1C(=O)CNC(=O)[C@@H]1CCCN1C(=O)[C@@H](NC(=O)[C@H](Cc1ccc(O)cc1)NC(=O)[C@H](CC(N)=O)NC(=O)[C@H](CCC(N)=O)NC(=O)[C@H](Cc1c[nH]c2ccccc12)NC(=O)[C@H](CC(=O)O)NC(=O)[C@@H]1CCCN1C(=O)[C@H](Cc1ccccc1)NC(=O)[C@H](Cc1ccc(O)cc1)NC(=O)CNC(=O)[C@H](CCC(N)=O)NC(=O)[C@@H](NC(=O)[C@@H](N)Cc1c[nH]cn1)[C@@H](C)O)[C@@H](C)O)C(C)C)[C@@H](C)O)C(N)=O` [Nef 116] (H-HTQGYFPDWQNYTPGPGVRYPLTFGWLYKLK(Palmitoyl)-NH2; N-terminus assumed), the “solubility in pure acetic acid” value is reported as “soluble”.
